Assay results reported in patent US11672795B2, “Compositions and methods for treating pulmonary vascular disease” (UNIVERSITY OF PITTSBURGH-OF THE COMMONWEALTH SYSTEM OF …, priority 2016, dated 2023).

Legend:
PAECs [1] = assay: Proliferation of PAECs (cell count, BrdU pulse, PCNA staining); assay type: cell-based, human
Description: A-C) PAECs were plated on soft (1 kPa) or stiff (50 kPa) matrix and exposed to indicated treatments. Apoptosis (A-C) and proliferation (B-C) were quantified 48 h after plating. […] Apoptosis (as reflected by cleaved caspase-3 staining, CC-3+) was increased by serum starvation in both soft and stiff conditions but was not affected by GLS1 inhibition. In all panels, mean expression in control groups (soft matrix) was assigned a fold change of 1, to which relevant samples were compared. Data are expressed as mean±SD (*P<0.05; ** P<0.01, ***P<0.001).
(§1) After various indicated treatments, cultured cells were fixed with PBS/PFA 4% for 10 min and permeabilized with PBS/Triton 100×0.1% for 10 min. The cells were then incubated with anti-PCNA (#4912; 1/100; Invitrogen), anti-Ki67 (ab15580; 1/200; Abcam), and/or anti-cleaved caspase-3 (1/200; Cell Signaling) at room temperature for 2 hours. Secondary antibodies coupled with Alexa-594 and/or Alexa-488 (Thermo Scientific) were used at 1/500. Nuclei were counterstained with DAPI (Sigma).
After specified pre-treatment or transfection protocols as indicated, PAECs or PASMCs were plated in triplicate in 6 well plates at 30 000 cells per well. After overnight incubation for cells to adhere, 6 wells were counted to determine initial count at time of treatments (glutamate, aspartate, BPTES, DON or C968). After 2 days, 4 days or 6 days, the contents of the wells were trypsinized and counted, and proliferation rate was calculated.
Exponentially growing cells were plated in the indicated matrix for 48 hours.

GLS1 = assay: Targeted LC-MS/MS of intracellular metabolites in PAECs on soft or stiff matrix with GLS inhibitors; assay type: cell-based, human; conditions: BPTES 10 μM, DON 5 μM; for glutamate and aspartate / glutamine, pyruvate, and succinate / lactate: compared with stiff matrix control; for alterations of metabolite expression in stiff matrix (stiffness-induced glutamine consumption, glutamate production, aspartate production) / lactate/pyruvate ratio (glycolysis): C968 10 μM, stiff matrix
Description: HEK293T cells (American Type Culture Collection) were cultivated in DMEM containing 10% fetal bovine serum (FBS). Primary human pulmonary arterial endothelial cells (PAECs) were grown in EGM-2 cell culture media (Lonza), and experiments were performed at passages 3 to 6. Primary human pulmonary arterial smooth muscle cells (PASMCs) were cultured in SmGM-2 cell culture media (Lonza), and experiments were performed at passages 3 to 9. Inhibitors of GLS1 (2, 3): BPTES (Bis-2-(5-phenylacetamido-1,3,4-thiadiazol-2-yl)ethyl sulphide), DON (6-Diazo-5-oxo-L-norleucine), and C968 (Glutaminase Inhibitor, Compound 968, 5-(3-Bromo-4-(dimethylamino)phenyl)-2,2-dimethyl-2,3,5,6-tetrahydrobenzo[a]phenanthridin-4(1H)-one) were purchased from Sigma-Aldrich and used at concentration of 10 μM, 5 μM and 10 μM respectively. Glutamate was purchased from Sigma Aldrich and used at concentration of 2 mM. Aspartate was purchased from Sigma Aldrich and used at concentration of 10 mM.
Metabolite extraction was performed essentially as described with minor modifications (35). Briefly, metabolites were extracted from cultured cells and CD31+ cells on dry ice using 80% aqueous methanol pre-cooled at −80° C. Metabolites were extracted from plasma pre-cleared by centrifugation at 20,000×g for 10 min at 4° C. Supernatants were extracted with four volumes of 100% methanol pre-cooled at −80° C. for four hours at −80° C. An internal standard, [^13C4]-2-oxoglutarate (Cambridge Isotope Laboratories) was added during metabolite extraction. Insoluble material from both cell and plasma extractions was removed by centrifugation at 20,000×g for 15 min at 4° C. The supernatant was analysed by targeted LC-MS/MS as previously described (36). Metabolites were separated using a ZIC-HILIC stationary phase (150 mm×2.1 mm×[…]; Merck). The MS parameters were optimized using a glutamine standard solution. Monitored mass transitions were 87>87 (pyruvate), 115>73+99 (succinate), 132>88 (aspartate), 145>101 (20G), […] (glutamine), 146>128 (glutamate), and 149>105 ([^13C4]-20G). Mass transitions and retention time windows were confirmed by the analysis of neat and matrix-spiked standards. Peak areas were quantified by Xcalibur Software (Thermo) and manually reviewed.
To determine whether GLS1 is critical for stiffness-induced and YAP/TAZ-dependent glutaminolysis, PAECs were cultivated in soft or stiff matrix, and exposed to known inhibitors of two isoforms of GLS1 (KGA and GAC), BPTES (Bis-2-(5-phenylacetamido-1,3,4-thiadiazol-2-yl)ethyl sulphide), DON (6-Diazo-5-oxo-L-norleucine), or CB-968 (glutaminase inhibitor, compound 968, C-968) (FIG. 3A-C) or siRNA (si-GLS; FIG. 3D-G). As quantified by LC-MS/MS, inhibition of GLS in PAECs blunted the stiffness-induced processes of glutamine consumption, glutamate production, and aspartate production (FIGS. 3A and E). […] Similar alterations of metabolic activity were observed when inhibiting GLS1 in PASMCs (data not shown).

PAAFs [2] = assay: PAAF-dependent ECM remodelling on cytokine stimulation (RT-qPCR, picrosirius red); assay type: cell-based; conditions: stimulation by pro-inflammatory cytokines (EDN1, IL6 or TGF-b)
Text: (§2) A-C) Pharmacological inhibition of GLS1 by either BPTES, C968 or CB839 blunted metabolic activation of PAAFs cultivated on stiff matrix as reflected by decreased glutaminolysis (A), glycolysis (B) and aspartate production (C). D-E) Pharmacological inhibition of GLS1 by either BPTES, C968 or CB839 decreased PAAFs dependent ECM remodelling upon stimulation by pro-inflammatory cytokines (EDN1, IL6 or TGF-b). […] G-H) Fibrilar collagen visualization (G) and quantification (H) by picrosirius red staining confirmed a decreased of ECM remodelling by activated PAAF (TGF-b) in presence of GLS1 inhibitors. I-M) PAAFs were cultivated upon indicated treatments. Cells were removed and pulmonary arterial endothelial cells (PAECs) were cultivated on the matrix synthesized by the PAAF. […] Data are expressed as mean±SEM (*P<0.05, § P<0.01, #P<0.001) of at least 3 independent experiments performed in triplicate. Paired samples were compared by 2-tailed Student's t test, while 1-way ANOVA and post-hoc Tukey's tests were used for group comparisons.
Messenger RNAs were reverse transcribed using the Multiscript RT kit (Life Technologies) to generate cDNA. cDNA was amplified via fluorescently labeled Taqman primer sets using an Applied Biosystems 7900HT Fast Real Time PCR device. To specifically determine the relative expression of the two GLS1 isoforms KGA and GAC, TaqMan gene expression assays Hs01014019_m1 and Hs01022166_m1 were used respectively. Fold-change of RNA species was calculated using the formula (2^−ΔΔCt), normalized to RPLP0 expression.
Picrosirius Red stain was achieved through the use of 5 μm paraffin sections stained with 0.1% Picrosirius Red (Direct Red80, Sigma-Aldrich) and counterstained with Weigert's hematoxylin to reveal fibrillar collagen. The sections were then serially imaged using with an analyzer and polarizer oriented parallel and orthogonal to each other. Microscope conditions (lamp brightness, condenser opening, objective, zoom, exposure time, and gain parameters) were maintained throughout the imaging of all samples. A minimal threshold was set on appropriate control sections for each experiment in which only the light passing through the orthogonally-oriented polarizers representing fibrous structures (i.e., excluding residual light from the black background) was included. The threshold was maintained for all images across all conditions within each experiment. The area of the transferred regions that was covered by the thresholded light was calculated and at least 10 sections/vessel per condition were averaged together (NIH ImageJ software). Targeted LC-MS/MS

PAAFs [3] = assay: Metabolic activation of PAAFs cultivated on stiff matrix; assay type: cell-based
Text: as §2

PAECs [4] = assay: Apoptosis of PAECs on soft or stiff matrix (caspase 3/7 activity, cleaved caspase-3 staining); assay type: cell-based, human
Description: A-C) PAECs were plated on soft (1 kPa) or stiff (50 kPa) matrix and exposed to indicated treatments. Apoptosis (A-C) and proliferation (B-C) were quantified 48 h after plating. […] In all panels, mean expression in control groups (soft matrix) was assigned a fold change of 1, to which relevant samples were compared. Data are expressed as mean±SD (*P<0.05; ** P<0.01, ***P<0.001).
as §1
Caspase 3/7 activity was quantified using the Caspase-Glo 3/7 Assay (Promega), according to manufacturer's instructions. Briefly, cells were plated on hydrogel of different stiffness and treated as described. Twenty four hours after plating, cells were cultured in the presence or absence of serum for twenty-four hours. Cells were then lysed and 10 μg of total protein were incubated for 1 h with the caspase substrates, and luminescence was quantified by plate reader (SynergyHTX multi-mode reader, Biotek).

Row | Compound | cellular proliferation in cells with diminished GLS1 or YAP/TAZ (PAECs [1]; PAECs or PASMCs with siRNA knockdown, glutamate 2 mM, aspartate 10 mM supplementation, data not shown) | glutamate and aspartate (GLS1) | glutamine, pyruvate, and succinate (GLS1) | lactate (GLS1) | alterations of metabolite expression in stiff matrix (stiffness-induced glutamine consumption, glutamate production, aspartate production) (GLS1) | lactate/pyruvate ratio (glycolysis) (GLS1) | PAAFs dependent ECM remodelling (PAAFs [2]) | aspartate production (PAAFs [3]) | glutaminolysis (PAAFs [3]) | glycolysis (PAAFs [3]) | metabolic activation of PAAFs (PAAFs [3]) | proliferation in stiff matrix (PCNA+) (PAECs [1]; PAECs, stiff matrix, 48 h after plating) | apoptosis (cleaved caspase-3 staining, CC-3+) (PAECs [4]; serum starvation, soft and stiff conditions) | caspase 3/7 activity (PAECs [4]; soft (1 kPa) or stiff (50 kPa) matrix, 24 h after serum depletion, vs vehicle control)
1 | N[C@@H](CCC(=O)O)C(=O)O [glutamate, Glutamate] | at least partially restored |  |  |  |  |  |  |  |  |  |  |  |  | 
2 | [N-]=[N+]=CC(=O)CC[C@H](N)C(=O)O [DON, 6-Diazo-5-oxo-L-norleucine] |  | decreased | increased | decreased | blunted | decreased |  |  |  |  |  |  |  | 
3 | O=C(Cc1ccccc1)Nc1nnc(CCSCCc2nnc(NC(=O)Cc3ccccc3)s2)s1 [BPTES, Bis-2-(5-phenylacetamido-1,3,4-thiadiazol-2-yl)ethyl sulphide] |  | decreased | increased | decreased | blunted | decreased | decreased | decreased | decreased | decreased | blunted | decreased | not affected | No significant changes
